The values below come from ChEMBL document CHEMBL1255553, “Unusual antimalarial meroditerpenes from tropical red macroalgae” (Bioorg Med Chem Lett, 2010).

For orientation: IC50 means the concentration at which inhibition is half-maximal. Higher therefore signals weaker potency. A word on the MIC: it is the smallest concentration in the dilution series that meets the test's criterion for growth inhibition. A higher MIC goes with a need for much substance.

One experiment deals with Plasmodium falciparum. The experiment is described as follows: Antimalarial activity against Plasmodium falciparum. It counts as functional, organism-based.
A further experiment deals with Staphylococcus aureus. The experiment is described as follows: Antimicrobial activity against methicillin-resistant Staphylococcus aureus. It counts as functional.
Another experiment relates to Enterococcus faecium. Nature of the experiment: Antimicrobial activity against vancomycin-resistant Enterococcus faecium. The experiment is classed as functional.
For another experiment, the system named is Candida albicans. The experiment is described as follows: Antimicrobial activity against amphotericin B-resistant Candida albicans. The experiment is classed as functional.
A further experiment has as its system CCRF-CEM. Nature of the experiment: Anticancer activity against human CCRF-CEM cells. It counts as functional, cell-based.
The test system of a further experiment is SHP77. The experiment is described as follows: Anticancer activity against human SHP77 cells. The experiment is classed as functional, cell-based.

Structures are written as SMILES. In brackets after ≈: the same amount, converted by molar mass.

As to `CC1=C2Cc3cc(ccc3O)C(=O)O[C@H](C(C)(C)Br)CC[C@](C)(O)[C@H](Br)CC[C@]2(C)[C@@H](Br)CC1`, the IC50 in the experiment with Plasmodium falciparum turned out to be 0.7 µM. In addition, the MIC with Staphylococcus aureus came to 5.9 µM (≈ 3.93 µg/mL); against Enterococcus faecium, 5.9 µM (≈ 3.93 µg/mL); against Candida albicans, 49 µM (≈ 32.6 µg/mL).
Consider `CC1=CC(=O)C=C(CC[C@](C)(O)CCC[C@H](C)CCC[C@H](C)CCCC(C)C)C1=O`, for which half-maximal inhibition in the experiment with Plasmodium falciparum (IC50) required 10 µM. Besides, the MIC against Staphylococcus aureus, in the experiment on Enterococcus faecium and in the experiment on Candida albicans was above 500 µM in each case.
As to `Cc1cc(O)c(C)c(CC[C@](C)(O)CCC[C@H](C)CCC[C@H](C)CCCC(C)C)c1O`, in the experiment on Plasmodium falciparum, the IC50 amounted to 190 µM. Further, the MIC in the experiment with Staphylococcus aureus and with Enterococcus faecium was above 500 µM throughout.
Regarding `Cc1cc(O)cc(CC[C@](C)(O)CCC[C@H](C)CCC[C@H](C)CCCC(C)C)c1O`, the MIC in the experiment with Plasmodium falciparum is 220 µM (≈ 92.5 µg/mL); in the experiment on Staphylococcus aureus it was above 500 µM; against Enterococcus faecium, above 500 µM.
In the experiment on Plasmodium falciparum, `CC1=C2Cc3cc(ccc3O)C(=O)O[C@H](C(C)(C)O)CC[C@]3(C)O[C@H]3C/C=C(\C)C2CC1` (some centres not stated) came in with an IC50 above 100 µM. Besides, the MIC in the experiment with Candida albicans is above 500 µM.
With `CC(C)=CCC[C@@](C)(O)[C@@H]1CC/C(C)=C/CC/C(C)=C/Cc2cc(ccc2O)C(=O)O1` [CALLOPHYCOLIDE A], the results for the IC50 in the experiment with Plasmodium falciparum, in the experiment on CCRF-CEM and in the experiment with SHP77 were 5.2 µM, 7.5 µM and 9.2 µM, respectively. Also, the MIC against Staphylococcus aureus is 9.1 µM (≈ 3.88 µg/mL); against Enterococcus faecium it was 9.1 µM (≈ 3.88 µg/mL); against Candida albicans, above 250 µM.
